Patent US10774082B2, “Quinazoline compound” (Astellas Pharma Inc., priority 2017, dated 2020)
pIC50: −log10 of the molar value. Where two headings read alike, the source gives them in different places.

Key:
[1] = target: T1, KRAS G12C/SOS/c-Raf complex (Homo sapiens, UniProt P01116, G12C); assay: KRAS G12C/SOS/c-Raf complex formation inhibitory action (TR-FRET); type: biochemical; conditions: one hour at room temperature, read-out: IC50 (KRAS G12C/SOS/c-Raf complex formation inhibition)
T1 construct: Biotinylated AviTag-KRAS G12C (amino acid region 1-185, GDP)
T1 sequence (P01116 1-185 isoform P01116-2 G12C, one chain of several): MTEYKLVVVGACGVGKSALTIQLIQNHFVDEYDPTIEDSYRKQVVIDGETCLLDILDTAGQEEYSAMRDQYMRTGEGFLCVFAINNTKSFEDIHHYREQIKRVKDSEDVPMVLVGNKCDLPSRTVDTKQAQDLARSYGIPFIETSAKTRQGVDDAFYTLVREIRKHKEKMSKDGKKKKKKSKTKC
Description: Evaluation of KRAS G12C/SOS/c-Raf Complex Formation Inhibitory Action
Human Recombinant KRAS G12C, SOS, and c-Raf protein were used, and with respect to the complex formation of these proteins, an inhibitory action of the test compound was examined through a time-resolved fluorescence resonance energy transfer (TR-FRET) method.
Biotinylated AviTag-KRAS G12C (amino acid region 1-185, GDP) (2.5 μL; 400 nM) dissolved in assay buffer (50 mM HEPES, 150 mM NaCl, 5 mM MgCl2, 0.05% Tween 20, pH 7.4) and test compound were added in a volume of 2.5 μL from 4,000 nM to 4 nM were added to 384 well plate (Corning Inc). Son of Sevenless (SOS) (amino acid region 564-1049, 2.5 μL; 1.3 μM) and c-Raf (amino acid region 51-131) GST containing GTP (Sigma-Aldrich Co. LLC) (2.5 μL; 130 nM and 4 μM of each) were added to the above mixture, and the resultant was left to stand for one hour at room temperature. Thereafter, a mixed solution (10 μL) of LANCE Ulight-anti-GST (120 nM, PerkinElmer. Co., Ltd) and LANCE Eu-W1024 labeled Streptoavidin (100 ng/mL, PerkinElmer. Co., Ltd) was added, and a fluorescence intensity on the condition of wavelength of 620 nm and 665 nm was measured by using EnVision 2103 Multilabel Reader (PerkinElmer Co., Ltd.) under the condition of excitation wavelength of 337 nm. […] In Tables, Ex represents Example numbers described later. In addition, in Tables, Compound C represents a test compound of Example I-59 disclosed in Pamphlet of International Publication No. WO 2016/164675, and the structures of Reference Example 1 and Reference Example 2 are indicated in Table 168 described below (the same shall apply hereinafter).

[2] = test system: ERK phosphorylation (Thr 202/Tyr 204) in NCI-H1373 cells; assay: ERK phosphorylation inhibitory action in NCI-H1373 (Cell ELISA); type: cell-based, Human; conditions: Homo sapiens, NCI-H1373, 2 h, read-out: IC50 (ERK phosphorylation inhibition)
Description: Evaluation of ERK Phosphorylation Inhibitory Action with Respect to Human KRAS G12C Mutation Positive Non-Small Cell Lung Cancer Strain NCI-H1373
The ERK phosphorylation inhibitory action by the test compound was evaluated by measuring phosphorylation of 202th threonine (Thr 202) and 204th tyrosine (Tyr 204) of ERK on the downstream of the KRAS signal by Cell ELISA.
NCI-H1373 cells (ATCC, CRL-5866) were seeded in 384 well plates (Greiner bio-one) at 36 μL/well each so as to be 2×10^4 cell per well. Cell culture was performed under the conditions of temperature of 37° C. in the presence of 5% CO2 by using RPMI 1640 medium (Sigma-Aldrich Co. LLC) containing 10% fetal bovine serum (GE Life Sciences).
The next day, the test compounds (six points in a range of final concentration 1,000 nM to 0.3 nM), final concentration 1 μM of Trametinib (GlaxoSmithKline Inc.; MEK inhibitor) as a positive control, and DMSO which is a solvent of the test compound as a negative control were diluted 100-fold with fresh medium, 4 μL each was added to each well, and then cultured for 2 hours. Immediately after culturing, 30 μL of 30% glyoxal solution (Wako: 40% glyoxal diluted with Phosphate Buffered Saline (PBS; Wako)) was added to each well, and the cells were left to stand at room temperature for one hour to be fixed. Thereafter, the supernatant was removed by centrifuging the plate (110×g for 7 seconds, unless otherwise stated below under the same conditions), and 20 μL of PBS containing 0.1% Triton X-100 (Amersham Biosciences Corp.) was added to each well. After being left to stand at room temperature for 10 minutes, the supernatant was removed by centrifugation, and the same operation was repeated. Next, 20 μL of PBS containing 0.5% SDS (Invitrogen) was added to each well, and the mixture was left to stand at room temperature for 30 minutes, and then centrifuged to remove the supernatant. Subsequently, 20 μL of a blocking solution (ODYSSEY Blocking Buffer; LI-COR Biosciences) was added to each well, and left to stand at room temperature for one hour. The supernatant was removed by centrifugation, and 10 μL of a blocking solution prepared by diluting ERK (Thr 202/Tyr 204) of a phosphorylation antibody (Cell Signaling Technology, Inc.) as a primary antibody to be ½, 500 amount with respect to a stock solution was added to each well and was left to stand at 4° C. for overnight.
The next day, a reaction liquid is removed by centrifuging the plate, 20 μL of 0.05% Tween-20-containing PBS (Thermo Scientific; 20×PBS Tween-20 diluted 20-fold with ion exchanged water) was added to each well, and each well was washed by removing the supernatant by centrifugation. Washing was performed three times in total. After washing, 10 μL of a blocking solution prepared by diluting IRDye 800CW Goat anti-Rabbit IgG (LI-COR Biosciences) as a secondary antibody to be 1/1,000 amount with respect to a stock solution was added to each well and was left to stand at room temperature for one hour. The reaction liquid was removed by centrifuging the plate, and each well was washed three times with 0.05% Tween-20-containing PBS in the same manner as after primary antibody reaction. The centrifugation after the third wash was 171×g for 17 seconds. After removal of the cleaning solution, the plate was left to air dry at room temperature for three hours or more and the fluorescent signal at 800 nm was measured by Aerius (LI-COR Biosciences).
When a signal value at the time of adding DMSO was set as 0% inhibition, and a signal value at the time of adding 1 μM of Trametinib was set as 100% inhibition, a value of 50% inhibition (IC50) was calculated through Sigmoid-Emax model nonlinear regression analysis.

NCI-H1373 cells = assay: Anchorage-independent cell proliferation inhibitory action, NCI-H1373 spheroid three-dimensional culture; type: cell-based, Human; conditions: Homo sapiens, NCI-H1373, 144 h, read-out: IC50 (anchorage-independent cell proliferation inhibition)
Description: Evaluation of Anchorage-Independent Cell Proliferation Inhibitory Action with Respect to Human KRAS G12C Mutation Positive Non-Small Cell Lung Cancer Strain NCI-H1373
An anchorage-independent cell proliferation inhibitory action by the test compound was evaluated by a spheroid three-dimensional culture.
NCI-H1373 cells were seeded in cell low adsorption U bottom 384 well plates (Prime Surface: Sumitomo Bakelite Co., Ltd.) at 36 μL/well each so as to be 5×10^2 cell per well. The cell culture was performed under the same conditions as Test example 2.
The next day, the test compounds (six points in a range of final concentration 1,000 nM to 0.3 nM) and DMSO which is a solvent of the test compound as a negative control were diluted 100-fold with fresh medium, 4 μL each was added to each well. After culturing at 37° C. in the presence of 5% CO2 for six days, 20 μL of CellTiter Glo or to CellTiter Glo 2.0 (Promega Corporation) was added to each well. After stirring for one hour at room temperature using a plate mixer (FINEPCR), an emission signal was measured with ARVO X3 (PerkinElmer Co., Ltd.).
When a signal value in a DMSO treatment was set as 0% inhibition, and a signal value in cell-free medium only was set as 100% inhibition, a value of 50% inhibition (IC50) was calculated through Sigmoid-Emax model nonlinear regression analysis.

[3] = NCI-H1373 cells, cultured for 2 hours, 100% = 1 μM Trametinib
[4] = NCI-H1373 spheroid, six days, CellTiter Glo

C=CC(=O)N1CC2(CCN(c3nc(OC4CCN(C)CC4)nc4c(OC5CCC5)c(-c5c(C)ccc6[nH]ncc56)c(C=C)cc34)CC2)C1 [Example 17]
pIC50 [1]: 7.47 | pIC50 [2]: 8.31 | pIC50 (NCI-H1373 cells): 7.92

C=CC(=O)N1CC2(CCN(c3nc(OC4CCN(CC)CC4)nc4c(OC5CCC5)c(-c5c(C)ccc6[nH]ncc56)c(C=C)cc34)CC2)C1 [Example 20]
pIC50 [1]: 7.49 | pIC50 [2, 3]: 8.19 | pIC50 (NCI-H1373 cells; [4]): 7.96

C=CC(=O)N1CC2(CCN(c3nc(OCCCN4CCOCC4)nc4c(OCC)c(-c5c(C)ccc6[nH]ncc56)c(C=C)cc34)CC2)C1 [Example 85]
pIC50 [1]: 7.25 | pIC50 [2, 3]: 7.77 | pIC50 (NCI-H1373 cells; [4]): 7.57

C=CC(=O)N1CC2(CCN(c3nc(OC4CCN(C5CC5)CC4)nc4c(OCC)c(-c5c(C)ccc6[nH]ncc56)c(C5CC5)cc34)CC2)C1 [Example 43]
pIC50 [1]: 7.30 | pIC50 [2]: 8.30 | pIC50 (NCI-H1373 cells): 8.22

C=CC(=O)N1CC2(CCN(c3nc(N4CCCN(C)CC4)nc4c(OCC(F)(F)F)c(-c5c(C)ccc6[nH]ncc56)c(C=C)cc34)CC2)C1 [Example 76]
pIC50 [1]: 7.37 | pIC50 [2, 3]: 7.82 | pIC50 (NCI-H1373 cells; [4]): 7.60

C=CC(=O)N1CC2(CCN(c3nc(OC4CCN(CC)CC4)nc4c(OCC)c(-c5c(C)ccc6[nH]ncc56)c(C5CC5)cc34)CC2)C1 [Example 18]
pIC50 [1]: 7.34 | pIC50 [2, 3]: 8.23 | pIC50 (NCI-H1373 cells; [4]): 8.14

C=CC(=O)N1CC2(CCN(c3nc(OC4CCN(CC)CC4)nc4c(OCC(F)F)c(-c5c(C)ccc6[nH]ncc56)c(C=C)cc34)CC2)C1 [Example 10]
pIC50 [1]: 7.47 | pIC50 [2, 3]: 8.24 | pIC50 (NCI-H1373 cells; [4]): 8.00

C=CC(=O)N1CC2(CCN(c3nc(OC4CCN(C5CCN(C)CC5)CC4)nc4c(OCC(F)(F)F)c(-c5c(C)ccc6[nH]ncc56)c(C=C)cc34)CC2)C1 [Example 72]
pIC50 [1]: 7.39 | pIC50 [2, 3]: 7.85 | pIC50 (NCI-H1373 cells; [4]): 7.62

C=CC(=O)N1CC2(CCN(c3nc(OC4CCN(CCOC)CC4)nc4c(OCC(F)(F)F)c(-c5c(C)ccc6[nH]nc(Cl)c56)c(C=C)cc34)CC2)C1 [Example 77]
pIC50 [1]: 7.25 | pIC50 [2, 3]: 7.80 | pIC50 (NCI-H1373 cells; [4]): 7.49

C=CC(=O)N1CC2(CCN(c3nc(OC4CCN(C)CC4)nc4c(OCc5ccccc5)c(-c5c(C)ccc6[nH]ncc56)c(C=C)cc34)CC2)C1 [Example 61]
pIC50 [1]: 7.25 | pIC50 [2, 3]: 8.06 | pIC50 (NCI-H1373 cells; [4]): 7.77

C=CC(=O)N1CC2(CCN(c3nc(NC4CCN(C)CC4)nc4c(OCC(F)(F)F)c(-c5c(C)ccc6[nH]ncc56)c(C=C)cc34)CC2)C1 [Example 68]
pIC50 [1]: 7.35 | pIC50 [2, 3]: 7.92 | pIC50 (NCI-H1373 cells; [4]): 7.80

C=CC(=O)N1CC2(CCN(c3nc(N4CCC(N(C)C)CC4)nc4c(OCC(F)(F)F)c(-c5c(C)ccc6[nH]ncc56)c(C=C)cc34)CC2)C1 [Example 42]
pIC50 [1]: 7.36 | pIC50 [2, 3]: 8.36 | pIC50 (NCI-H1373 cells; [4]): 7.89

C=CC(=O)N1CC2(CCN(c3nc(OC4CCN(CC5CCOCC5)CC4)nc4c(OCC(F)(F)F)c(-c5c(C)ccc6[nH]ncc56)c(C=C)cc34)CC2)C1 [Example 44]
pIC50 [1]: 7.39 | pIC50 [2]: 8.29 | pIC50 (NCI-H1373 cells): 8.12

C=CC(=O)N1CC2(CCN(c3nc(OC4CCN(CC)CC4)nc4c(OCC(F)F)c(-c5c(C)ccc6[nH]ncc56)c(C5CC5)cc34)CC2)C1 [Example 22]
pIC50 [1]: 7.41 | pIC50 [2, 3]: 8.34 | pIC50 (NCI-H1373 cells; [4]): 7.82

C=CC(=O)N1CC2(CCN(c3nc(OC4CCN(C)CC4)nc4c(OCc5ccc(C)cc5)c(-c5c(C)ccc6[nH]ncc56)c(C=C)cc34)CC2)C1 [Example 58]
pIC50 [1]: 7.24 | pIC50 [2, 3]: 8.08 | pIC50 (NCI-H1373 cells; [4]): 7.77

C=CC(=O)N1CC2(CCN(c3nc(OC4CCN(CCN5CCCC5)CC4)nc4c(OCC(F)(F)F)c(-c5c(C)ccc6[nH]ncc56)c(C=C)cc34)CC2)C1 [Example 73]
pIC50 [1]: 7.36 | pIC50 [2, 3]: 7.82 | pIC50 (NCI-H1373 cells; [4]): 7.55

C=CC(=O)N1CC2(CCN(c3nc(OC4CCN(C)CC4)nc4c(OCc5ccc(OC(F)F)cc5)c(-c5c(C)ccc6[nH]ncc56)c(C=C)cc34)CC2)C1 [Example 66]
pIC50 [1]: 7.33 | pIC50 [2, 3]: 8.01 | pIC50 (NCI-H1373 cells; [4]): 7.41

C=CC(=O)N1CC2(CCN(c3nc(OC4CCN(CCC#N)CC4)nc4c(OCC)c(-c5c(C)ccc6[nH]ncc56)c(C5CC5)cc34)CC2)C1 [Example 54]
pIC50 [1]: 7.22 | pIC50 [2, 3]: 8.14 | pIC50 (NCI-H1373 cells; [4]): 8.17

C=CC(=O)N1CC2(CCN(c3nc(OC4CCN(CCOC(C)C)CC4)nc4c(OCC(F)(F)F)c(-c5c(C)ccc6[nH]ncc56)c(C=C)cc34)CC2)C1 [Example 47]
pIC50 [1]: 7.37 | pIC50 [2, 3]: 8.25 | pIC50 (NCI-H1373 cells; [4]): 7.77

C=CC(=O)N1CC2(CCN(c3nc(OC4CCN(CC)CC4)nc4c(OCC(F)(F)F)c(-c5c(C)ccc6[nH]ncc56)c(C=C)cc34)CC2)C1 [Example 9]
pIC50 [1]: 7.26 | pIC50 [2, 3]: 8.42 | pIC50 (NCI-H1373 cells; [4]): 8.26
